According to patent publication US20060183733A1, “Treating microvasculature diseases with acetyl cholinesterase inhibitors” (priority 2005, published 2006):
“And” between values parts separate entries of the source, which are not always exact repeats. Equal values may be shown once. “Also recorded” adds a separate entry of the source.

Assays:
[1] = system: patients with chronic renal insufficiency; test: Patient case histories: chronic renal insufficiency (serum creatinine, BUN); format: in vivo, human
Description: To postpone or avoid the sequelae of chronic renal insufficiency, treatment with acetylcholinesterase inhibitors increase the concentration of acetycholine available to promote blood flow to the renal cortex preventing loss of nephrons and allowing existing renal parenchyma to provide the vital function of the kidney. Just as parasympathetic outflow provide homeostatic neural input to the elimination of function of the intestine, the same parasympathetic innervation provides vasodilatation of the small arterioles supplying the cortex of the kidneys allowing for optimal functioning.

[2] = system: patients with rheumatologic conditions (RA, SLE, PMR, polymyositis); test: Patient case histories: rheumatological conditions; format: in vivo, human
Description: The use of an acetylcholinesterase inhibitor raises level of acetylcholine by inhibition of cholinesterase. The Increased levels of acetylcholine stimulate neuronal receptors of the parasympathetic nervous system and non-neuronal receptors associated with the intima of blood vessels and leukocytes. This dual effect of improving flow within the microvascular circulation and stabilization of leukocytes and their adhesion to the wall of blood vessel produces the anti-inflammatory effect that is observed with the use of an acetylcholinesterase inhibitor for treatment of rheumatologic diseases.

[3] = system: patients with phantom pain; test: Patient case histories: phantom pain following amputation; format: in vivo, human; settings: donepizil 5 mg daily
Description: The present invention further provides a method of treating phantom pain following amputation in both upper and lower extremities. “Phantom pain” is a phenomenon described following amputation of either an upper or lower extremity. The sensation is common following amputation and present with varying degrees of discomfort and debility. A patient with phantom pain is typically treated with antidepressants, Neurontin® (gabapeninand) narcotics to a varying degree. The use of acetylcholinesterase inhibitors decreases the need for narcotics and generally eliminates the need for poly pharmacy improving pain, enhancing wound healing and improved sleep pattern in amputee patients. The dose of acetylcholinesterase inhibitor is titrated to GI (gastrointestinal) tolerance with bowel movement consistency and frequency the determining factors. Treatment with acetylcholinesterase inhibitor increases the available acetylcholine which is the neurotransmitter responsible for activation of the parasysmpathic nervous system appear responsible for Noxious symptoms of phantom pain for discomfort. The present invention provides a method of treating phantom pain associated with amputation of either upper or lower extremity.

patients with lymphedema = format: in vivo, human; settings: donepizil 5 mg orally daily
Description: The improvement in perfusion within the small arterioles decreases the hydrostatic pressure at the end arterioles and therefore reduces interstitial fluid accumulation that impedes the return of lymph fluid within the lymphatic vessels. The physics model for this phenomenon makes use of Bernouli's equation and its relationship to a Venturi tube. Hydrostatic pressure proximal to a relative stricture creates a pressure gradient that leads to increased transudation that overwhelms the capacity of the lymphatic system to manage. The vasodilatory effects of the parasympathetic nervous system upon small arterioles produces improved perfusion and lessens the accumulation of lymphedema. A common example of lymphedema occurs following joint replacement surgery with swelling that persists for three to six months and sometimes permanently. Lymphedema following joint replacement surgery slows recovery and creates pain while predisposing to deep vein thrombosis and infection.

[4] = system: patients with diabetic polyneuropathy; format: in vivo, human; settings: drug stopped after initial improvement
Description: The symptoms of motor and sensory loss of diabetic polyneuropathy are ameliorated by acetylcholinesterase inhibitions by increasing concentration of acetylcholine, the principle neurotransmitter of the parasympathetic nervous system. By augmenting the trophic input of nerves of parasympathic nervous system; pain and dyserethesia are diminished and weakness/atrophy of muscles are diminished. The clinical observation in non-Alzheimer's patients is an improvement in motor and sensory function following treatment with effective doses of an acetylcholinesterase inhibitor. Improved blood flow within the microvascular circulation supplying the vasovasorum of the nerves produces the beneficial effect. By restoring blood flow to the vasovasorum of the nerves ischemic pain is relieved and normal function of the nerve is allowed to occur. The process of vasodilatation of the microvascular circulation is mediated through both neuronal and non-neuronal acetylcholine receptors stimulation by acetylcholine. Enhancement in acetylcholine levels is effected through treatment with acetylcholinesterase inhibitors.
The physiologic shift favoring vasoconstriction that is associated with diabetes is reversed following administration of an acetylcholinesterase inhibitor allowing perfusion of the microvasculature, restoring blood flow to ischemic motor and sensory nerves damaged by the effects of diabetes.

[5] = system: patients with peripheral vascular disease and diabetes mellitus; test: Patient case histories: microvascular disease / vascular insufficiency; format: in vivo, human; settings: for side effects: donepizil 5-10 mg daily
Description: In summary, vascular insufficiency from diabetes is associated with compromise of the microvascular circulation. Treatment with an effective dose of an acetylcholinesterase inhibitor raises the relative concentration of acetylcholine promoting vasodilitation of the microcirculation (end arterioles) through stimulation of neuronal and non-neuronal acetylcholine receptors in the intima of the blood vessels. The beneficial effects of promoting vasodilitation and enhanced tissue perfusion correcting the dystrophic changes and alleviating ischemic pain and ulcers is readily apparent in this series of patients.
The present invention provides a method for the medical management of peripheral vascular disease. The management of peripheral vascular disease with acetylcholinesterase inhibitor addresses the central dilemma in vascular perfusion of the lower extremities. By increasing the relative concentration of acetylcholine, the parasympthetic nervous system is enhanced, improving blood flow at the tissue level by relaxation of the small end arterioles and improving perfusion therefore decreasing vascular edema, enhancing resolution of trohpic ulcers and alleviating rest pain and claudication complaints. The parasympathetic nervous system controls vascular beds in the small arterioles and by increasing the available acetylcholine, dilatation occurs and blood flow improves. By treatment with acetylcholinesterase inhibitors the end results in improved vascular blood supply, decreased congestion at the small arterioles level and improved blood supply. This is particularly necessary in diabetic patients. The presence of non-neuronal acetylcholine receptors with the intima of blood vessels at the microvascular level represents a second physiologic mechanism whereby dilatation of small blood vessels is facilitated by the use of an acetylcholinesterase inhibitor. This latter mechanism owing to the sensitive nature of the cholinesterases associated with the non neuronal acetylcholine system provides sustained cholinergic activity impacting the microvascular circulation and improving perfusion at the critical end arteriole-capillary-venule level.

[6] = system: patients with Parkinson's disease; settings: donepizil decreased from 10 mg to 5 mg daily

## COc1cc2c(cc1OC)C(=O)C(CC1CCN(Cc3ccccc3)CC1)C2 (stereo not shown) [donepizil, 1-benzyl-4->(5,6-dimethoxy-1-indanon)-2-yl methylpiperidine]
[1]; donepizil 5 mg daily one month then 10 mg daily one month, before treatment 1.8
  serum creatinine: 0.8
[1]; donepizil 5 mg one week then 10 mg daily, two weeks of treatment, 5.5 on admission, on hemodialysis (Parkinson's patient)
  serum creatinine: 4.2
[1]; donepizil 5 mg orally daily
  side effects: no untoward side effects; also recorded: no evidence of metabolic acidosis or hyperkalemia; also recorded: no adverse side effects
[1]; donepizil 5 mg orally daily one month after switch from galantamine, 1.8 before any treatment
  serum creatinine: 1.0
[1]; donepizil 5 mg orally daily one month after switch from galantamine, 32 before any treatment
  BUN (blood urea nitrogen): 14
[1]; donepizil 5 mg orally daily, 4 weeks/one month, before treatment 1.7, 1.8, 1.4, 1.6, 1.7
  serum creatinine: 1.0 and 1.4 and 1.1 and 1.6 and 0.9
[1]; donepizil 5 mg orally daily, about 6 weeks, before treatment b104 1.4, b106 1.8
  serum creatinine: 1.0 and 1.1
[1]; donepizil 5 mg orally daily, about 6 weeks, before treatment b104 37, b106 30
  BUN (blood urea nitrogen): 21 and 19
[1]; donepizil 5 mg orally daily, three weeks, before treatment 2.8, on lisinopril
  serum creatinine: 1.4
[1]; donepizil 5 mg orally daily, three weeks, before treatment 39
  BUN (blood urea nitrogen): 26
[1]; donepizil 5 mg orally daily, two to three months, before treatment 1.7, 1.8, 1.7
  serum creatinine: 1.1 and 0.9 and 1.2
[1]; donepizil 5 mg orally daily, two to three months, before treatment b96 48, b110 35
  BUN (blood urea nitrogen): 20 and 19
[1]; donepizil 5 mg orally daily, two weeks, before treatment 30
  BUN (blood urea nitrogen): 22
[1]; donepizil 5 mg orally daily, up to two weeks, before treatment b100 1.6, b106 1.8
  serum creatinine: 1.3
[1]; donepizil 10 mg daily continued for the next month, 5.5 on admission, hemodialysis discontinued
  serum creatinine: 2.1
[2]; donepizil 5 mg orally daily
  clinical outcome (movement, pain, sleep, edema): return of movement in their feet bilaterally; also recorded: improved sleep pattern and decreased pain; also recorded: edema previously noted in their feet bilaterally resolved; also recorded: became ambulatory; also recorded: improvement in their pain complaints and decreased swelling in their ankles bilaterally
[2]; donepizil 5 mg orally daily, Polymyalgia Rheumatica
  erythrocyte sedimentation rate (ESR), follow up: in the normal range
[2]; donepizil 10 mg daily, Systemic Lupus Erythematosis
  clinical outcome (strength, swelling, vision): improved strength in their arms; also recorded: resolved as well as dysesthesias; also recorded: improved but not sufficient to allow for ambulation; also recorded: no return of vision; also recorded: return of movement in their feet bilaterally with decreased lower extremity swelling
[2]; donepizil 10 mg, SLE patient with urinary retention
  post void residuals: less than 100 cc
[2]; donepizil 5-10 mg daily
  side effects: no symptoms of diarrhea or nausea; also recorded: without incident, adverse side effects or deterioration in their condition; also recorded: no symptoms of diarrhea; also recorded: no untoward side effects
[3]
  clinical outcome (phantom pain, sleep): dramatic improvement in here phantom discomfort; also recorded: prompt improvement in their pain control; also recorded: phantom pain diminished to the point they no longer required Oxycotin®; also recorded: notable improvement in leg discomfort; also recorded: much improved phantom discomfort and improved sleep; also recorded: no symptoms of vascular insufficiency in their contralateral extremity
Patients with lymphedema
  side effects: suffered symptoms of diarrhea or nausea
[4]
  course after the drug was withdrawn or lapsed: progressive decline in their ability and strength over the next 7-10 days
[5]; donepizil 5 mg daily, 2 weeks to >1 year, single patients, listed as donepezil
  clinical outcome (vascular edema, ulcers, pain, foot temperature): the heel ulcer completely resolved
[5]
  side effects: no diarrhea or ulcer symptoms; also recorded: No serious untoward side effects were noted; also recorded: able to tolerate this treatment for the next 6 months; also recorded: No deleterious side effects such a diarrhea or acid reflux were noted; also recorded: no diarrhea or symptoms of gastrointestinal reflux; also recorded: without any untoward side effects; also recorded: without deleterious side affects such a diarrhea or acid reflux; also recorded: absence of any adverse side effects
[5]; listed as donepezil
  side effects: without nausea/vomiting or diarrhea symptoms
[5]; donepizil increased to 10 mg daily, additional one month (a person)
  clinical outcome (ulcers, edema, phantom discomfort): near complete healing of the leg ulcers and complete resolution of their edema
[6]
  course after dose reduction: notable deterioration in their motor function and a return of Parkinsonian symptoms
